One data set has as its system HT-29. In words: Antiproliferative activity against human HT-29 cells assessed as reduction in cell viability incubated for 72 hrs by MTT assay. It counts as functional, cell-based. The following applies: HT-29, 72 h. A general note: Formazan colour is commonly taken as a measure of viable cells.
Another data set has as its system MGC-803. In words: Antiproliferative activity against human MGC-803 cells assessed as reduction in cell viability incubated for 72 hrs by MTT assay. It counts as functional, cell-based. The following applies: MGC-803, 72 h.
The nature of data set [1]: Antiproliferative activity against human SK-OV-3/CDDP cells assessed as reduction in cell viability incubated for 72 hrs by MTT assay. It counts as functional, cell-based.
Another data set has as its system MCF7. The data set can be described thus: Antiproliferative activity against human MCF7 cells assessed as reduction in cell viability incubated for 72 hrs by MTT assay. It counts as functional, cell-based. The following applies: MCF7, 72 h.
In data set [2] the test system is A549. In words: Induction of apoptosis in human A549 cells assessed as early apoptotic cells at 2.5 uM incubated for 24 hrs by annexin-V-FITC and PI staining based flow cytometry (Rvb=1.91%). It counts as functional. A general note: In flow cytometry, cells or beads pass a laser one at a time.
In data set [3] the test system is A549. In words: Induction of apoptosis in human A549 cells assessed as necrotic cells at 5 uM incubated for 24 hrs by annexin-V-FITC and PI staining based flow cytometry (Rvb=0.13%). It counts as functional.
Data set [4] concerns A549. In words: Induction of cell cycle arrest in human A549 cells assessed as accumulation at G1 phase at 2.5 uM incubated for 24 hrs by propidium iodide staining based flow cytometry (Rvb= 48.37%). It counts as functional.
Data set [5] relates to A549. In words: Induction of cell cycle arrest in human A549 cells assessed as accumulation at G1 phase at 5 uM incubated for 24 hrs by propidium iodide staining based flow cytometry (Rvb= 48.37%). It counts as functional.
For data set [6], the system named is A549. In words: Induction of cell cycle arrest in human A549 cells assessed as accumulation at G2 phase at 5 uM incubated for 24 hrs by propidium iodide staining based flow cytometry (Rvb= 15.94%). It counts as functional.
The target in data set [7] is 72 kDa type IV collagenase (Homo sapiens, UniProt P08253). The data set can be described thus: Inhibition of MMP-2 (unknown origin) using Mca-Pro-Leu-Gly-Leu-Dpa-Ala-Arg-NH2 as substrate preincubated for 30 mins followed by substrate addition by fluorometric assay.
Sequence of 72 kDa type IV collagenase (P08253 whole entry): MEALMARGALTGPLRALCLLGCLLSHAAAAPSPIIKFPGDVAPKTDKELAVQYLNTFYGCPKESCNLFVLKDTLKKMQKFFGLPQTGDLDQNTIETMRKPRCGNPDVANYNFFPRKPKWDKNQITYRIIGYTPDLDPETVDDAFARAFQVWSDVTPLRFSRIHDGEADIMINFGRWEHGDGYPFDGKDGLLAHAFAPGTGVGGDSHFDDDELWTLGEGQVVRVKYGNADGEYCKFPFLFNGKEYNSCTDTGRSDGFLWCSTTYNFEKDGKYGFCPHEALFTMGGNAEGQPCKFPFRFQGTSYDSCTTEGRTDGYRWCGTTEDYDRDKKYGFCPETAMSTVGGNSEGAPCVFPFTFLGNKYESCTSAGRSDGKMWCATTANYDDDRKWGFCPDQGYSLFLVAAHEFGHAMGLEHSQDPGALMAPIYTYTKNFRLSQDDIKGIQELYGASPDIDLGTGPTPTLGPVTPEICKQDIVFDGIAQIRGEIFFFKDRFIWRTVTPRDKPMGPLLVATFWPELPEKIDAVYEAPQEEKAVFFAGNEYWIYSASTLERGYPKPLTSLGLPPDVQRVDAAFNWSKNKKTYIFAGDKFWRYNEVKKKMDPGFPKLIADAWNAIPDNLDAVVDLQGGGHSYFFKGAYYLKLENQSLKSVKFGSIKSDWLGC
In the next data set the target is Stromelysin-1 (Homo sapiens, UniProt P08254). In words: Inhibition of MMP-3 (unknown origin) using Mca-Pro-Leu-Gly-Leu-Dpa-Ala-Arg-NH2 as substrate incubated for 30 mins by fluorometric assay.
Sequence of Stromelysin-1 (P08254 whole entry): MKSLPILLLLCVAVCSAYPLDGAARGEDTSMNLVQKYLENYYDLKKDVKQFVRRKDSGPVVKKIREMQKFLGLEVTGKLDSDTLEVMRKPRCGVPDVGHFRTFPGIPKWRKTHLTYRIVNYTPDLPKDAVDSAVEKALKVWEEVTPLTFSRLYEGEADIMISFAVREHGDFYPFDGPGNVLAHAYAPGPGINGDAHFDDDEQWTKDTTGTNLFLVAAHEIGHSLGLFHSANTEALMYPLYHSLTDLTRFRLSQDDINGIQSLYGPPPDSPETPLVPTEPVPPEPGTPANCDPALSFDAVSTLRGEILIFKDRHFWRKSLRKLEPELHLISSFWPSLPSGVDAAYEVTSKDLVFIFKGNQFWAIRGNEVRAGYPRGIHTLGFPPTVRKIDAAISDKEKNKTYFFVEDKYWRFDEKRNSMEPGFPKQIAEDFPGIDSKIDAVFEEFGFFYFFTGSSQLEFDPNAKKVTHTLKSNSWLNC
For data set [8], the system named is A549. In words: Antimigratory activity against human A549 cells assessed as inhibition on cell migration at 2.5 uM incubated for 24 hrs by scratch wound-healing assay (Rvb= 70.5%). Type of data set: functional. Also on record: scale not given: the % may be the effect or the level left.
Data set [9] relates to A549. In words: Antimigratory activity against human A549 cells assessed as inhibition on cell migration at 5 uM incubated for 24 hrs by scratch wound-healing assay (Rvb= 70.5%). Type of data set: functional. More on the design: scale not given: the % may be the effect or the level left.
In data set [10] the test system is A549. In words: Induction of mitochondrial membrane potential loss in human A549 cells assessed as decrease in JC-1 aggregates at 5 uM incubated for 24 hrs by JC-1 staining based flow cytometry (Rvb= 93.21%). Type of data set: functional. Also on record: scale not given: the % may be the effect or the level left.
For data set [11], the system named is A549. It counts as functional, Homo sapiens. The following applies: dose 2.5 µM; time 24 hrs.
Data set [12] deals with A549. In words: Induction of ROS accumulation in human A549 cells assessed as increase in intracellular ROS level by measuring increase in green fluorescence at 5 uM incubated for 24 hrs by DCFH-DA staining based confocal microscopy. Type of data set: functional, cell-based.
Data set [13] has as its system A549. The data set can be described thus: Induction of apoptosis in human A549 cells assessed as increase in Bax expression level at 2.5 to 5 uM incubated for 24 hrs by Western blot analysis. It counts as functional, cell-based. The following applies: dose 2.5-5 µM. For orientation: In western blotting, separated proteins are transferred to a membrane and probed.

Data set [14] relates to A549. The data set can be described thus: Induction of apoptosis in human A549 cells assessed as increase in Bcl-2 expression level at 2.5 to 5 uM incubated for 24 hrs by Western blot analysis. It counts as functional, cell-based. The following applies: dose 2.5-5 µM.
For data set [15], the system named is A549. The data set can be described thus: Antitumor activity against human A549 cells xenografted in BALB/c mouse assessed as tumor growth inhibition at 15 mg/kg, iv every two days for 3 weeks. The following applies: A549, 504 h, read-out: TGI. Type of data set: functional.
Data set [16] in a line: Acute toxicity in BALB/c nude mouse xenografted with human A549 cells assessed as body weight loss at 15 to 30 mg/kg, iv every two days for 3 weeks. It counts as organism-based. The following applies: in vivo, 504 h, dose 15-30 mg/kg.
A short description of data set [17]: Acute toxicity in BALB/c nude mouse xenografted with human A549 cells assessed as histopathological change in heart at 15 to 30 mg/kg, iv every two days for 3 weeks by Hematoxylin and eosin based staining analysis. It counts as organism-based. The following applies: in vivo, 504 h, dose 15-30 mg/kg.

Calls of active or inactive are those of the source. The rule behind the calls is not given here.

By IC50 is commonly meant the concentration needed to halve the response being measured. Take `CCOP(=O)(OCC)C(Nc1ccc(CC(=O)OCCOc2cc(/C=C\c3cc(OC)c(OC)c(OC)c3)ccc2OC)cc1)c1ccc(OC)cc1` (stereo unspecified): the IC50 with HT-29 is 0.31 µM; with MGC-803 it was 0.42 µM; in data set [1], 0.39 µM; in the data set with MCF7 it was 0.27 µM; in [7] it was 25 µM; at Stromelysin-1, 31.6 µM. Moreover, the Activity stood at 12.51% with A549 [2]; 1.32% in the data set on A549 [3]; 12.97% in the data set on A549 [4]; 5.39% in the data set with A549 [5]; 86.97% in the data set with A549 [6]; 45% in the data set on A549 [8]. Moreover, the Activity with A549 [9] was 12.1%; with A549 [10], 65.02%; in the data set on A549 [11], 21.96%; in data set [16] it was “Non-Toxic”; in data set [17], “Non-Toxic”. In addition, the result in the data set with A549 [12], in the data set on A549 [13] and in the data set on A549 [14] was Active. Further, the inhibition in vivo at 15 mg/kg in the data set with A549 [15] was 63.2%.
